Common to all, as to type: cell-based, mouse
The test system of assay [1] is α7 integrin (LacZ reporter in α7βgal+/− myoblasts). The assay is described as follows: Myoblast α7+/LacZ integrin FDG assay (Burkin assay in myoblasts, 96-well). The following applies: α7+/LacZ myoblasts, 96-well.
For assay [2], the system named is α7 integrin (LacZ reporter in α7+/LacZ myotubes). Nature of the assay: Myotube α7 integrin FDG assay (Burkin assay in myotubes, 96-well). The following applies: myotubes.
The test system of assay [3] is β-galactosidase in CMV-LacZ C2C12 myoblasts. Nature of the assay: CMV-LacZ secondary screen in C2C12 myoblasts (β-Gal stabilizing assay). The following applies: CMV-LacZ C2C12 myoblasts. The gist of the method:
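First, C2C12 myoblasts were transfected with a linearized CMV-LACZ vector and clonal lines selected by FDG β-gal assay. Then cells were exposed to compounds at 0.5, 1, 5, 10, 20 and 40 μM in 96-well format, two replicates each, and β-gal measured.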

For assay [4], the system named is β-galactosidase in CMV-LacZ C2C12 myotubes. The assay is described as follows: CMV-LacZ secondary screen in C2C12 myotubes (β-Gal stabilizing assay). The following applies: C2C12 CMV-LacZ myotubes, fold relative to DMSO. The gist of the method: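 Dose-response runs at 0.5–40 μM (0.5, 1, 5, 10, 20, 40 μM; N=2 per point) used a clonal C2C12 line carrying CMV-LacZ. Cells were assayed as myoblasts or as differentiated myotubes, and β-galactosidase levels were read with the FDG fluorogenic substrate.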

For the molecule `CN(CC(=O)Nc1cccc(F)c1)C(=O)c1ccc(-c2ccc(Cl)cc2)o1` [MLS001078811-01], the “Burkin Assay in Myoblasts, signal relative to DMSO” value in assay [1] (0.5 uM) was determined as 0.9376; in assay [1] (1 uM), 0.9926; in assay [1] (5 uM), 0.9583; in assay [1] (10 uM), 0.891; in assay [1] (20 uM) it was 1.681; in assay [1] (40 uM), 0.7411. Also, the “Burkin Assay in Myotubes, α7 integrin LacZ reporter signal relative to DMSO” value in assay [2] (0.5 uM) is given as 0.9163; in assay [2] (1 uM), 0.9064; in assay [2] (5 uM) it was 0.9816; in assay [2] (10 uM) it was 0.8773; in assay [2] (20 uM), 0.6307; in assay [2] (40 uM), 0.4598. Further, the “CMV-LACZ in Myoblasts (β-galactosidase activity relative to DMSO)” value in assay [3] (0.5 uM) was determined as 1.2397; in assay [3] (1 uM) it was 1.2290; in assay [3] (5 uM) it was 0.7927; in assay [3] (10 uM), 0.6873; in assay [3] (20 uM), 0.8393; in assay [3] (40 uM), 0.9014. For the same molecule, the “CMV-LACZ in Myotubes, signal relative to DMSO” value in assay [4] (0.5 uM) came out at 0.8486; in assay [4] (1 uM) it was 0.9086; in assay [4] (5 uM), 1.1571; in assay [4] (10 uM) it was 0.9981; in assay [4] (20 uM), 1.0510; in assay [4] (40 uM), 0.6710.
On to `CCCS(=O)(=O)c1nc(S(=O)(=O)c2ccc(C)cc2)c(N2CCCC2)s1` [MLS000113985-01], for which the “Burkin Assay in Myoblasts, signal relative to DMSO” value was found to be 1.065 in assay [1] (0.5 uM); 1.018 in assay [1] (1 uM); 0.7898 in assay [1] (5 uM); 0.4804 in assay [1] (10 uM); 0.1779 in assay [1] (20 uM); 0.122 in assay [1] (40 uM). The “Burkin Assay in Myotubes, α7 integrin LacZ reporter signal relative to DMSO” value in assay [2] (0.5 uM) was found to be 0.9882; in assay [2] (1 uM), 1.037; in assay [2] (5 uM), 0.9919; in assay [2] (10 uM) it was 0.9925; in assay [2] (20 uM), 0.7655; in assay [2] (40 uM), 0.6679. In addition, the “CMV-LACZ in Myoblasts (β-galactosidase activity relative to DMSO)” value in assay [3] (0.5 uM) was found to be 0.9809; in assay [3] (1 uM) it was 1.0049; in assay [3] (5 uM), 1.0836; in assay [3] (10 uM) it was 0.9187; in assay [3] (20 uM), 0.2126; in assay [3] (40 uM), 0.1841. Further, the “CMV-LACZ in Myotubes, signal relative to DMSO” value in assay [4] (0.5 uM) stood at 1.0629; in assay [4] (1 uM) it was 1.0638; in assay [4] (5 uM) it was 1.0031; in assay [4] (10 uM), 1.0241; in assay [4] (20 uM) it was 1.0541; in assay [4] (40 uM), 1.0482.
Consider `O=C(N[C@@H](Cc1c[nH]c2ccccc12)C(=O)O)C1CCN(S(=O)(=O)c2cccs2)CC1` [MLS001175021-01], for which the “Burkin Assay in Myoblasts, signal relative to DMSO” value was 0.92 in assay [1] (0.5 uM); 0.9803 in assay [1] (1 uM); 0.8806 in assay [1] (5 uM); 0.906 in assay [1] (10 uM); 0.9747 in assay [1] (20 uM); 0.9575 in assay [1] (40 uM). Moreover, the “Burkin Assay in Myotubes, α7 integrin LacZ reporter signal relative to DMSO” value in assay [2] (0.5 uM) turned out to be 1.061; in assay [2] (1 uM), 1.0167; in assay [2] (5 uM) it was 1.051; in assay [2] (10 uM), 0.9913; in assay [2] (20 uM) it was 0.9799; in assay [2] (40 uM), 0.8788. Besides, the “CMV-LACZ in Myoblasts (β-galactosidase activity relative to DMSO)” value is given as 1.1772 in assay [3] (0.5 uM); 1.0729 in assay [3] (1 uM); 0.9282 in assay [3] (5 uM); 0.9395 in assay [3] (10 uM); 1.1070 in assay [3] (20 uM); 1.0907 in assay [3] (40 uM). For the same molecule, the “CMV-LACZ in Myotubes, signal relative to DMSO” value in assay [4] (0.5 uM) worked out at 1.0611; in assay [4] (1 uM), 0.9621; in assay [4] (5 uM), 0.9049; in assay [4] (10 uM), 0.7979; in assay [4] (20 uM), 1.1378; in assay [4] (40 uM) it was 0.9733.
Turning to `O=C1CCC(C(=O)N2CCSCC2)CN1Cc1ccc(Cl)cc1` (stereo not drawn) [MLS001090787-01], the “Burkin Assay in Myoblasts, signal relative to DMSO” value was 1.142 in assay [1] (0.5 uM); 0.9734 in assay [1] (1 uM); 1.263 in assay [1] (5 uM); 1.46 in assay [1] (10 uM); 1.265 in assay [1] (20 uM); 1.222 in assay [1] (40 uM). Further, the “Burkin Assay in Myotubes, α7 integrin LacZ reporter signal relative to DMSO” value in assay [2] (0.5 uM) is reported as 1.054; in assay [2] (1 uM), 1.168; in assay [2] (5 uM), 1.083; in assay [2] (10 uM) it was 1.195; in assay [2] (20 uM), 1.209; in assay [2] (40 uM), 1.5544. Also, the “CMV-LACZ in Myoblasts (β-galactosidase activity relative to DMSO)” value in assay [3] (0.5 uM) was determined as 0.9196; in assay [3] (1 uM), 0.9754; in assay [3] (5 uM) it was 0.9700; in assay [3] (10 uM) it was 0.8594; in assay [3] (20 uM) it was 0.7533; in assay [3] (40 uM) it was 0.5907. Besides, the “CMV-LACZ in Myotubes, signal relative to DMSO” value in assay [4] (0.5 uM) is given as 1.0009; in assay [4] (1 uM), 0.9055; in assay [4] (5 uM) it was 1.0126; in assay [4] (10 uM) it was 1.1178; in assay [4] (20 uM) it was 0.8990; in assay [4] (40 uM), 0.9450.
As to `COc1ccc(OC)c(S(=O)(=O)Nc2c(NC3CCCCC3)c3ccccc3oc2=O)c1` [MLS001095705-01], the “Burkin Assay in Myoblasts, signal relative to DMSO” value in assay [1] (0.5 uM) is 0.7873; in assay [1] (1 uM), 0.8788; in assay [1] (5 uM), 1.295; in assay [1] (10 uM), 0.969; in assay [1] (20 uM), 0.7917; in assay [1] (40 uM), 0.7284. Also, the “Burkin Assay in Myotubes, α7 integrin LacZ reporter signal relative to DMSO” value is listed as 0.9916 in assay [2] (0.5 uM); 0.9463 in assay [2] (1 uM); 1.073 in assay [2] (5 uM); 0.8798 in assay [2] (10 uM); 0.9411 in assay [2] (20 uM); 0.7937 in assay [2] (40 uM). Also, the “CMV-LACZ in Myoblasts (β-galactosidase activity relative to DMSO)” value turned out to be 1.2060 in assay [3] (0.5 uM); 1.2293 in assay [3] (1 uM); 0.6476 in assay [3] (5 uM); 0.7229 in assay [3] (10 uM); 1.1400 in assay [3] (20 uM); 1.1723 in assay [3] (40 uM). The “CMV-LACZ in Myotubes, signal relative to DMSO” value is recorded as 0.9486 in assay [4] (0.5 uM); 0.9933 in assay [4] (1 uM); 1.1898 in assay [4] (5 uM); 1.3164 in assay [4] (10 uM); 1.2020 in assay [4] (20 uM); 1.0800 in assay [4] (40 uM).

Source of the values: patent US9980943B2, “Methods of treating muscular dystrophy” (BOARD OF REGENTS OF THE NEVADA SYSTEM OF HIGHER EDUCATION, …, priority 2013, dated 2018).
